Measured values reported in patent publication US12421249B2, “Inhibitors of APOL1 and methods of using same” (Vertex Pharmaceuticals Incorporated, priority 2020, dated 2025).
Where two headings read alike, the source gives them in different places.

Columns and labels:
APOL1 G1 = target: T1, APOL1 G1 (Homo sapiens, UniProt O14791, I384M/S342G); assay: Trypanosoma brucei brucei Lysis Assay Using APOL1 Recombinant Protein (AlamarBlue viability readout); assay type: cell-based; settings: for IC50: IP50 = IC50 for cell proliferation, read-out: Trypanosome Assay IP50; for Emax: read-out: Trypanosome Assay Max Activity (%)
T1 sequence (O14791 28-398 S342G/I384M): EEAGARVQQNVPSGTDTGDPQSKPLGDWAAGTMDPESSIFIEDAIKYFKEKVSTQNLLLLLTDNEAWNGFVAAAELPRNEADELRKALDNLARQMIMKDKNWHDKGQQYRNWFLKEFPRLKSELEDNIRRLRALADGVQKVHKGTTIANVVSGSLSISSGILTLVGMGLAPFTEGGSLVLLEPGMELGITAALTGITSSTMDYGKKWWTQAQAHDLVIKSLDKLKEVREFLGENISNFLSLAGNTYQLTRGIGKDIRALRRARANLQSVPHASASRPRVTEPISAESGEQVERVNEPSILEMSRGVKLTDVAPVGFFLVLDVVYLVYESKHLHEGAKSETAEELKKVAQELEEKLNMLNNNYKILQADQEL
Summary of the method: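 Percent viability comes from AlamarBlue (resazurin→resorufin) fluorescence interpolated on a standard curve of known parasite numbers, with no-APOL1 wells as 100%. Parasites (Lister 427 bloodstream form, 120,000/well, serum-free assay medium) meet 0.05 μg/mL APOL1 (~EC90). Compounds span a 10-point series, 0.1% DMSO final.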

APOL1 = target: T2, APOL1 (Homo sapiens, UniProt O14791); assay: Multi-Tox Assay (MultiTox-Fluor Multiplex Cytotoxicity Assay in tet-inducible APOL1 T-REx-HEK293 cells; Table 46 does not say which APOL1 variant G0/G1/G2); assay type: cell-based; settings: APOL1 variant not given; for IC50: IP50 = IC50 for cell proliferation
T2 sequence (O14791 1-398 S342G/I384M): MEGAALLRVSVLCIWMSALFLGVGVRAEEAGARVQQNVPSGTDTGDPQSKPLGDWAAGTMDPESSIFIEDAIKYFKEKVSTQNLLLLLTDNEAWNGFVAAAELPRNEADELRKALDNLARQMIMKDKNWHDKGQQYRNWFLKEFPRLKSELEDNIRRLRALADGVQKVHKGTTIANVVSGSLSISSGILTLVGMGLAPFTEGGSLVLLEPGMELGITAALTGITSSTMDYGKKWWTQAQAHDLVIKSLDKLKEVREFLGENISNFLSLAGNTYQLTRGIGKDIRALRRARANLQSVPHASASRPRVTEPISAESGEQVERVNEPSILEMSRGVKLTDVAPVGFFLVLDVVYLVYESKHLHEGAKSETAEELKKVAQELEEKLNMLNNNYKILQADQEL

Compound | IC50 (APOL1 G1; Trypanosome Assay) [nM] | Emax (APOL1 G1; Trypanosome Assay) [%] | IC50 (APOL1) [nM] | Multi-Tox Assay Max Activity (%) (APOL1) | Emax (APOL1 G1) [%] | IC90 (APOL1) [nM] | Trypanosome Assay Max Activity (%) (APOL1 G1; Trypanosome Assay)
Cc1nc([C@@H]2C[C@]3(C[C@H](C)N2)OCCc2cc(Cl)sc23)cn1C (racemic) [Compound 159] | > 500 | 63.5 | > 500 | – | – | – | –
C[C@H]1C[C@@]2(C[C@@H](c3cnccc3O)N1)OCCc1cc(Cl)sc12 (racemic) [Compound 160] | > 500 | 97.5 | > 500 | – | – | – | –
Cc1nc[nH]c1[C@@H]1C[C@]2(C[C@H](C)N1)OCCc1cc(Cl)sc12 (racemic) [Compound 161] | > 500 | 73 | > 500 | – | – | – | –
CC(C)c1c[nH]c([C@@H]2C[C@]3(C[C@H](C)N2)OCCc2cc(Cl)sc23)n1 (racemic) [Compound 162] | > 500 | 81 | > 500 | – | – | – | –
C[C@H]1C[C@@]2(C[C@@H](c3cnn4c3OCCC4)N1)OCCc1cc(Cl)sc12 (racemic) [Compound 163] | > 500 | 79.5 | > 500 | – | – | – | –
Cc1nccnc1[C@@H]1C[C@]2(C[C@H](C)N1)OCCc1cc(Cl)sc12 (racemic) [Compound 164] | > 500 | 85 | > 500 | – | – | – | –
C[C@H]1C[C@@]2(C[C@@H](c3ncc(C(F)(F)F)[nH]3)N1)OCCc1cc(Cl)sc12 (racemic) [Compound 165] | > 500 | 61 | > 500 | 92.0 | – | – | –
COc1cccc([C@@H]2C[C@]3(C[C@H](C)N2)OCCc2cc(Cl)sc23)c1O (racemic) [Compound 166] | > 500 | 57.5 | > 500 | – | – | – | –
Cc1cccnc1[C@@H]1C[C@]2(C[C@H](C)N1)OCCc1cc(Cl)sc12 (racemic) [Compound 167] | > 500 | 73 | > 500 | – | – | – | –
C[C@H]1C[C@@]2(C[C@@H](c3cccc4cn[nH]c34)N1)OCCc1cc(Cl)sc12 (racemic) [Compound 168] | > 500 | 54.5 | > 500 | – | – | – | –
C[C@H]1C[C@@]2(C[C@@H](c3n[nH]c4ccccc34)N1)OCCc1cc(Cl)sc12 (racemic) [Compound 169] | > 500 | 61 | > 500 | – | – | – | –
Cc1nc2c([C@@H]3C[C@]4(C[C@H](C)N3)OCCc3cc(Cl)sc34)cccc2o1 (racemic) [Compound 170] | > 500 | 71.5 | > 500 | 89.7 | – | – | –
C[C@H]1C[C@@]2(C[C@@H](c3ncnn3C)N1)OCCc1cc(Cl)sc12 (racemic) [Compound 171] | > 500 | 14 | > 500 | – | – | – | –
C[C@H]1C[C@@]2(C[C@@H](c3ncccc3O)N1)OCCc1cc(Cl)sc12 (racemic) [Compound 172] | > 500 | 64.5 | > 500 | – | – | – | –
C[C@@H]1C[C@]2(C[C@H](C)N1)OCC(O)c1cc(Cl)sc12 (mixture of isomers) [Compound 205, (2R,6S)-2-chloro-2′,6′-dimethyl-spiro[4,5-dihydrothieno[2,3-c]pyran-7,4′-piperidine]-4-ol] | 50 to 500 | – | < 50 | – | 106 | – | –
C[C@@H]1CC2(C[C@@H](c3cn(C)nn3)N1)OCCc1cc(Cl)sc12 (single isomer, unassigned) [Compound 7] | > 500 | 92 | 50 to 500 | – | – | 50 to 500 | –
C[C@H]1CC2(C[C@@H](c3cn(C)nn3)N1)OCCc1sc(Cl)cc12 (single isomer, unassigned) [Compound 173] | < 50 | 116 | < 50 | – | – | – | –
C[C@H]1CC2(CC(c3cnn(C)c3)N1)OCC(O)c1cc(Cl)sc12 (single isomer, unassigned) [Compound 175] | < 50 | 106 | < 50 | 100.0 | – | < 50 | –
C[C@H]1CC2(CC(c3cnn(C)c3)N1)OCC(O)c1cc(Cl)sc12 (single isomer, unassigned) [Compound 176] | < 50 | – | < 50 | 100.0 | – | < 50 | 115.5
C[C@H]1C[C@@]2(C[C@@H](c3cn(C)nn3)N1)OCC(O)(C(F)F)c1cc(Cl)sc12 (single isomer, unassigned) [Compound 184] | 50 to 500 | – | < 50 | – | – | – | –

Compound | IC50 (APOL1 G1; Trypanosome Assay) [nM] | Emax (APOL1 G1; Trypanosome Assay) [%] | IC50 (APOL1) [nM] | Multi-Tox Assay Max Activity (%) (APOL1) | Emax (APOL1 G1) [%] | IC90 (APOL1) [nM] | Trypanosome Assay Max Activity (%) (APOL1 G1; Trypanosome Assay)
C[C@H]1C[C@@]2(C[C@@H](c3cn(C)nn3)N1)OCC(O)(C(F)F)c1cc(Cl)sc12 (single isomer, unassigned) [Compound 185] | 50 to 500 | – | < 50 | 99.5 | – | < 50 | 99.0
C[C@@H]1CC2(C[C@H](C)N1)OCCc1sc(C(F)(F)F)cc12 (single isomer, unassigned) [Compound 196] | 50 to 500 | 111 | 50 to 500 | – | – | – | –
C[C@@H]1CC2(C[C@H](C)N1)OCCc1cc(Br)sc12 (single isomer, unassigned) [Compound 197] | 50 to 500 | – | 50 to 500 | – | 106 | – | –
C[C@@H]1CC2(C[C@H](C)N1)OCCc1cc(C3CC(F)(F)C3)sc12 (single isomer, unassigned) [Compound 198] | 50 to 500 | – | 50 to 500 | – | – | – | –
CCc1cc2c(s1)C1(C[C@@H](C)N[C@@H](C)C1)OCC2 (single isomer, unassigned) [Compound 199] | 50 to 500 | – | < 50 | – | 110 | – | –
CC(C)c1cc2c(s1)C1(C[C@@H](C)N[C@@H](C)C1)OCC2 (single isomer, unassigned) [Compound 200] | 50 to 500 | – | 50 to 500 | – | 98.7 | – | –
CC(C)Cc1cc2c(s1)C1(C[C@@H](C)N[C@@H](C)C1)OCC2 (single isomer, unassigned) [Compound 201] | > 500 | 76.7 | 50 to 500 | – | – | – | –
C[C@@H]1CC2(C[C@H](C)N1)OCCc1cc(C3CCCCC3)sc12 (single isomer, unassigned) [Compound 202] | > 500 | 19 | > 500 | – | – | – | –
C[C@@H]1CC2(C[C@H](C)N1)OCCc1cc(CC(F)F)sc12 (single isomer, unassigned) [Compound 203] | < 50 | 102 | < 50 | – | – | – | –
C[C@@H]1CC2(C[C@H](C)N1)OCCc1cc(Cl)sc12 (single isomer, unassigned) [Compound 204] | 50 to 500 | – | 50 to 500 | – | 112 | – | –
Clc1cc2c(s1)C1(C[C@@H](C3CC3)N[C@@H](C3CC3)C1)OCC2 (single isomer, unassigned) [Compound 206] | 50 to 500 | 104 | < 50 | – | – | – | –
C[C@@H]1CC2(C[C@H](C)N1)OCCc1cc(C(F)(F)F)sc12 (single isomer, unassigned) [Compound 207] | < 50 | 108 | < 50 | – | – | – | –
C[C@@H]1CC2(C[C@H](C)N1)OCCc1c2sc(C(F)(F)F)c1CO (single isomer, unassigned) [Compound 208] | 50 to 500 | 103 | < 50 | – | – | – | –
CC1CC2(CC(C3CC3(F)F)N1)OCCc1cc(Cl)sc12 (single isomer, unassigned) [Compound 212] | < 50 | 101 | < 50 | – | – | – | –
CC1CC2(CC(C3CC3(F)F)N1)OCCc1cc(Cl)sc12 (single isomer, unassigned) [Compound 213] | 50 to 500 | – | 50 to 500 | 99.5 | – | 50 to 500 | 98.7
Cc1cc2c(s1)C1(C[C@@H](c3cn(C)nn3)N[C@@H](C)C1)OCC2 (stereo in doubt) [Compound 3] | < 50 | 107 | < 50 | – | – | – | –
CCc1cc2c(s1)CCOC21C[C@@H](c2cn(C)nn2)N[C@@H](C)C1 (stereo in doubt) [Compound 4] | < 50 | 118 | < 50 | – | – | – | –
CCc1cc2c(s1)CCO[C@@]21C[C@@H](c2cnn(CCS(C)(=O)=O)c2)N[C@@H](C)C1 (stereo in doubt) [Compound 5] | 50 to 500 | 111 | 50 to 500 | 100.0 | – | – | –
CCc1cc2c(s1)C1(C[C@@H](c3cn(C)nn3)N[C@@H](C)C1)OCC2 (stereo in doubt) [Compound 6] | < 50 | 102 | < 50 | – | – | – | –
